# Measurements as given in patent publication US20250304623A1, “PEPTIDES FOR INTRACELLULAR DELIVERY” (UNIVERSIDADE DE SANTIAGO DE COMPOSTELA, priority 2022, published 2025).
# *: point of attachment. NHNH2 = NN*
# How the values were obtained:
# Assay type in all cases: cell-based
# [1] = tested on: Hek293 cells expressing EGFP; experiment: EGFP-targeting siRNA delivery (GFP silencing vs siMOCK), Hek293
# [2] = tested on: ARPE19 cells expressing EGFP; experiment: EGFP-targeting siRNA delivery (GFP silencing vs siMOCK), ARPE19
# Outline: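 This siRNA delivery assay used stably EGFP-expressing cells seeded a day ahead in 96-well plates. siGFP and amphiphile were combined in DMEM at a constant 30 nM siRNA, incubated 30 min at room temperature, then applied for 4 h before switching to fresh DMEM with 10% FBS. After 72 h, a plate reader measured fluorescence decrease relative to non-targeting siMOCK, subtracting untreated background.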
# [3] = tested on: A549 cells expressing EGFP; experiment: EGFP-targeting siRNA delivery (GFP silencing vs siMOCK), A549; conditions: for siRNA % fluorescence reduction vs siMOCK: A549, amphiphile 5 μM, hydrophobic tail; for percentage of GFP-silencing relative to siMOCK: A549 cells
# [4] = tested on: A549 cells expressing EGFP; experiment: Cas9-RNP delivery against EGFP (gene editing, plate reader), A549; conditions: A549 cells
# Outline: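 EGFP knockout by Cas9-RNP was assessed in EGFP-expressing A549 cells. crRNA and tracrRNA were annealed, combined with Cas9 protein (4 μM in DMEM), and mixed with amphiphile. Cells were washed with PBS and exposed to the complexes in DMEM for 4 h, then given DMEM with 10% FBS. Fluorescence reduction versus untreated cells was measured 72 h later, subtracting background.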
substance,measurement,setting,value
"Ac-RRHK*RLK*RRLK*RL-NH2 (Ac-RRHK(NHNH2)RLK(NHNH2)RRLK(NHNH2)RL-NH2; not fully specified; printed as Ac-RRHK*RLK*RRLK*RL-NH2; also: K*4,K*7,K*11: native or modified lysine (ε-amide to a linker)) [13(Leu-His)]",percentage of GFP-silencing relative to siMOCK,"[1]; Dodecanal, 5 μM",43%
same,percentage of GFP-silencing relative to siMOCK,"[1]; Dodecanal, 10 μM",18%
same,percentage of GFP-silencing relative to siMOCK,"[1]; Dodecanal, 15 μM",57%
same,percentage of GFP-silencing relative to siMOCK,"[1]; Myristoleyl, 5 μM",41%
same,percentage of GFP-silencing relative to siMOCK,"[1]; Myristoleyl, 10 μM",37%
same,percentage of GFP-silencing relative to siMOCK,"[1]; Myristoleyl, 15 μM",9%
same,percentage of GFP-silencing relative to siMOCK,"[1]; Oleyl, 10 μM",62%
same,percentage of GFP-silencing relative to siMOCK,"[1]; Oleyl, 15 μM",21%
same,percentage of GFP-silencing relative to siMOCK,"[1]; Palmitoleyl, 5 μM",26%
same,percentage of GFP-silencing relative to siMOCK,"[1]; Petroselinyl, 5 μM",43%
same,percentage of GFP-silencing relative to siMOCK,"[1]; Petroselinyl, 10 μM",43%
same,percentage of GFP-silencing relative to siMOCK,"[1]; Petroselinyl, 15 μM",33%
same,percentage of GFP-silencing relative to siMOCK,"[2]; Dodecanal, 5 μM",27%
same,percentage of GFP-silencing relative to siMOCK,"[2]; Dodecanal, 10 μM",31%
same,percentage of GFP-silencing relative to siMOCK,"[2]; Dodecanal, 15 μM",41%
same,percentage of GFP-silencing relative to siMOCK,"[2]; Myristoleyl, 10 μM",25%
same,percentage of GFP-silencing relative to siMOCK,"[2]; Myristoleyl, 15 μM",0%
same,percentage of GFP-silencing relative to siMOCK,"[2]; Oleyl, 10 μM",26%
same,percentage of GFP-silencing relative to siMOCK,"[2]; Oleyl, 15 μM",15%
same,percentage of GFP-silencing relative to siMOCK,"[2]; Palmitoleyl, 5 μM",46%
same,percentage of GFP-silencing relative to siMOCK,"[2]; Palmitoleyl, 10 μM",26%
same,percentage of GFP-silencing relative to siMOCK,"[2]; Palmitoleyl, 15 μM",24%
same,percentage of GFP-silencing relative to siMOCK,"[2]; Petroselinyl, 10 μM",34%
same,percentage of GFP-silencing relative to siMOCK,"[2]; Petroselinyl, 15 μM",13%
same,siRNA % fluorescence reduction vs siMOCK,[3],76%
same,percentage of GFP-silencing relative to siMOCK,"[3]; Dodecanal, 10 μM",10%
same,percentage of GFP-silencing relative to siMOCK,"[3]; Dodecanal, 15 μM",55%
same,percentage of GFP-silencing relative to siMOCK,"[3]; Myristoleyl, 10 μM",10%
same,percentage of GFP-silencing relative to siMOCK,"[3]; Myristoleyl, 15 μM",14%
same,percentage of GFP-silencing relative to siMOCK,"[3]; Oleyl, 5 μM",29%
same,percentage of GFP-silencing relative to siMOCK,"[3]; Oleyl, 10 μM",20%
same,percentage of GFP-silencing relative to siMOCK,"[3]; Oleyl, 15 μM",17%
same,percentage of GFP-silencing relative to siMOCK,"[3]; Palmitoleyl, 10 μM",54%
same,percentage of GFP-silencing relative to siMOCK,"[3]; Palmitoleyl, 15 μM",50%
same,percentage of GFP-silencing relative to siMOCK,"[3]; Petroselinyl, 10 μM",38%
same,percentage of GFP-silencing relative to siMOCK,"[3]; Petroselinyl, 15 μM",76%
same,"percentage of gene editing, GFP fluorescence intensity decrease (% of reduction)","[4]; Myristoleyl, 5 μM",13%
same,"percentage of gene editing, GFP fluorescence intensity decrease (% of reduction)","[4]; Myristoleyl, 10 μM",20%
same,"percentage of gene editing, GFP fluorescence intensity decrease (% of reduction)","[4]; Myristoleyl, 15 μM",45%
same,"percentage of gene editing, GFP fluorescence intensity decrease (% of reduction)","[4]; Palmitoleyl, 15 μM",21%
same,"percentage of gene editing, GFP fluorescence intensity decrease (% of reduction)","[4]; Petroselinyl, 5 μM",13%
same,"percentage of gene editing, GFP fluorescence intensity decrease (% of reduction)","[4]; Petroselinyl, 10 μM",16%
same,"percentage of gene editing, GFP fluorescence intensity decrease (% of reduction)","[4]; Petroselinyl, 15 μM",42%
Ac-RRLK*RLK*RRLK*RL-NH2 [Peptide 13.3],percentage of GFP-silencing relative to siMOCK,"[1]; Dodecanal, 5 μM",52%
same,percentage of GFP-silencing relative to siMOCK,"[1]; Dodecanal, 10 μM",44%
same,percentage of GFP-silencing relative to siMOCK,"[1]; Dodecanal, 15 μM",48%
same,percentage of GFP-silencing relative to siMOCK,"[1]; Myristoleyl, 15 μM",25%
same,percentage of GFP-silencing relative to siMOCK,"[1]; Oleyl, 10 μM",2%
same,percentage of GFP-silencing relative to siMOCK,"[1]; Palmitoleyl, 5 μM",42%
same,percentage of GFP-silencing relative to siMOCK,"[1]; Petroselinyl, 5 μM",18%
same,percentage of GFP-silencing relative to siMOCK,"[1]; Petroselinyl, 10 μM",0%
same,percentage of GFP-silencing relative to siMOCK,"[1]; Petroselinyl, 15 μM",20%
same,percentage of GFP-silencing relative to siMOCK,"[2]; Dodecanal, 5 μM",29%
same,percentage of GFP-silencing relative to siMOCK,"[2]; Dodecanal, 10 μM",51%
same,percentage of GFP-silencing relative to siMOCK,"[2]; Dodecanal, 15 μM",37%
same,percentage of GFP-silencing relative to siMOCK,"[2]; Palmitoleyl, 10 μM",11%
same,percentage of GFP-silencing relative to siMOCK,"[2]; Petroselinyl, 5 μM",11%
same,percentage of GFP-silencing relative to siMOCK,"[2]; Petroselinyl, 10 μM",13%
same,percentage of GFP-silencing relative to siMOCK,"[2]; Petroselinyl, 15 μM",−42%
same,siRNA % fluorescence reduction vs siMOCK,[3]; dodecanal hydrophobic tail,58%
same,siRNA % fluorescence reduction vs siMOCK,[3]; myristoleyl hydrophobic tail,57%
same,siRNA % fluorescence reduction vs siMOCK,[3]; palmitoleyl hydrophobic tail,60%
same,percentage of GFP-silencing relative to siMOCK,"[3]; Dodecanal, 5 μM",59%
same,percentage of GFP-silencing relative to siMOCK,"[3]; Dodecanal, 10 μM",54%
same,percentage of GFP-silencing relative to siMOCK,"[3]; Dodecanal, 15 μM",46%
same,percentage of GFP-silencing relative to siMOCK,"[3]; Myristoleyl, 5 μM",57%
same,percentage of GFP-silencing relative to siMOCK,"[3]; Myristoleyl, 10 μM",25%
same,percentage of GFP-silencing relative to siMOCK,"[3]; Myristoleyl, 15 μM",28%
same,percentage of GFP-silencing relative to siMOCK,"[3]; Oleyl, 10 μM",14%
same,percentage of GFP-silencing relative to siMOCK,"[3]; Oleyl, 15 μM",4%
same,percentage of GFP-silencing relative to siMOCK,"[3]; Palmitoleyl, 5 μM",60%
same,percentage of GFP-silencing relative to siMOCK,"[3]; Palmitoleyl, 10 μM",37%
same,percentage of GFP-silencing relative to siMOCK,"[3]; Palmitoleyl, 15 μM",29%
same,percentage of GFP-silencing relative to siMOCK,"[3]; Petroselinyl, 5 μM",31%
same,percentage of GFP-silencing relative to siMOCK,"[3]; Petroselinyl, 10 μM",53%
same,percentage of GFP-silencing relative to siMOCK,"[3]; Petroselinyl, 15 μM",59%
same,"percentage of gene editing, GFP fluorescence intensity decrease (% of reduction)","[4]; Dodecanal, 10 μM",20%
same,"percentage of gene editing, GFP fluorescence intensity decrease (% of reduction)","[4]; Myristoleyl, 5 μM",21%
same,"percentage of gene editing, GFP fluorescence intensity decrease (% of reduction)","[4]; Myristoleyl, 10 μM",33%
same,"percentage of gene editing, GFP fluorescence intensity decrease (% of reduction)","[4]; Myristoleyl, 15 μM",62%
same,"percentage of gene editing, GFP fluorescence intensity decrease (% of reduction)","[4]; Oleyl, 10 μM",14%
same,"percentage of gene editing, GFP fluorescence intensity decrease (% of reduction)","[4]; Oleyl, 15 μM",48%
same,"percentage of gene editing, GFP fluorescence intensity decrease (% of reduction)","[4]; Palmitoleyl, 10 μM",33%
same,"percentage of gene editing, GFP fluorescence intensity decrease (% of reduction)","[4]; Palmitoleyl, 15 μM",48%
same,"percentage of gene editing, GFP fluorescence intensity decrease (% of reduction)","[4]; Petroselinyl, 5 μM",12%
same,"percentage of gene editing, GFP fluorescence intensity decrease (% of reduction)","[4]; Petroselinyl, 10 μM",32%
same,"percentage of gene editing, GFP fluorescence intensity decrease (% of reduction)","[4]; Petroselinyl, 15 μM",56%
